Reference: paper PMC6598159 (ACS Central Science, 2019)

Test: CYP reaction phenotyping in HLM with selective CYP inhibitors
Details: ketoconazole 1 or 10 μM; ticlopidine 20 μM; mitragynine 2 μM

CC(=O)N1CCN(c2ccc(OCC3COC(Cn4ccnc4)(c4ccc(Cl)cc4Cl)O3)cc2)CC1 (centres unmarked) [ketoconazole]
effect on decomposition of mitragynine in HLM: robustly inhibited | effect on formation of 7-OH from mitragynine in HLM: robustly inhibited
